Test results as given in US5618726A, “Biodegradable azo dyes” (priority 1994, dated 1997).
Read-outs that look alike come from different tables or passages of the source.

Key:
[1] = test system: Streptomyces chromofuscus; assay: Mineralization of 14C-labeled dyes by shaken cultures; type: cell-based; conditions: 21 days' growth, 50 mg/liter
Method: (§1) Agitated cultures containing 100,000 to 150,000 dpm of azo dye at a concentration of 200 mg/liter for P. chrysosporium and 50 mg/liter for S. chromofuscus were incubated at 37° C. for 20 days with shaking at 200 rpm. For each mineralization experiment six replicates-per-culture were run for P. chrysosporium and three replicates-per-culture for S. chromofuscus. Each culture flask contained a CO2 trap consisting of a small glass cup connected to the bottom of the rubber stopper. The cup contained 1 ml of 1N NaOH. Samples were taken every 2 days, and after each sampling cultures were flushed with 100% oxygen for 30 s. At the sampling time, the stopper was removed and the NaOH containing trapped CO2 was transferred to a 20-ml scintillation vial, and the cup was then rinsed twice with 1 ml of water. Two ml of rinse water were also transferred to the vial. Finally, 10 ml of Ecolite scintillation cocktail (ICN Biochemicals Inc., Irvine, Calif.) were added to each vial. Vials, after mixing, were stored in the dark for 24 h. The cpm of trapped radioactivity was then determined in a Packard Tri-Carb liquid scintillation analyzer, Model 1500, using the ^14 C quench standards and SIS numbers.
(§2) The removal of radioactivity from the media was determined by measuring the amount of ^14 C label in 0.1 ml of the medium at time 0 and 21 days for each culture. Uninoculated cultures were used as evaporation controls. […] At the end of each mineralization experiment, culture broths were acidified with 5 ml of 1M H3 PO4, fresh 1N NaOH was added to the trap, and the cultures were shaken overnight. No additional releases of ^14 CO2 were observed. The radioactivity assimilated by the cells was measured by solubilizing biomass harvested from each 21-day-old culture in an equal volume of hyamine hydroxide solution. Before solubilization, cells were washed three times with 50 ml of distilled water to remove adsorbed dyes. Ecolite 10 ml was added to the mixture, which was vortexed vigorously. To increase counting efficiency, the solution of biomass-hyamine-scintillation cocktail was further diluted 10 to 20 times with fresh Ecolite before counting.

[2] = test system: P. chrysosporium; assay: as above; type: cell-based, Phanerochaete chrysosporium
Method: as §1
Either a charcoal-containing polyurethane sponge (Bio-Rad Laboratories, Richmond, Calif.) or 2-methoxyethanol was used to trap volatile organic compounds released during mineralization experiments. The sponge (1 cm^3) replaced the 1N NaOH solution in the small glass cap attached to the rubber stopper; other conditions were as before for the ^14 CO2 experiments. For scintillation counting, the charcoal sponges were dissolved in 1 ml of hyamine hydroxide contained in scintillation vials (1M solution in methanol; NEN Research Products, Boston, Mass.) held at 55° C. for 2 h. Ten ml of Ecolite scintillation cocktail were then added and the cpm was measured.
In the second procedure, cultures with CO2 traps were flushed with oxygen for 10 min, and the organic volatiles present were trapped in 10 ml of 2-methoxyethanol mixed with 10 ml Ecolite.
as §2

[3] = test system: Phanerochaete chrysosporium; assay: Substrate removal / decolorization by P. chrysosporium culture; type: cell-based
Method: Environ. Microbiol., 1981, 42:290-296), with the addition of 75 mg adenine (6-aminopurine) and 27 mg L-phenylalanine-per-liter. This addition accelerated the growth of the fungus without inhibiting ligninase activity. […] […] Cultures were incubated at 37° C. for 7 to 15 days with shaking (250 rpm). Solid agar media were also employed.

[4] = test system: Mn(II)-peroxidase; assay: Oxidation of dyes by P. chrysosporium Mn(II)-peroxidase; type: biochemical, Phanerochaete chrysosporium; conditions: 15-minute incubation period
[5] = test system: ligninase; assay: Oxidation of dyes by P. chrysosporium ligninase (crude preparation); type: biochemical, Phanerochaete chrysosporium; conditions: pH3, 0.2 mM hydrogen peroxide, 15-minute incubation
How it was run: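 Crude P. chrysosporium ligninase oxidation of dyes, assayed by a previously reported method; conditions as for acid yellow 9, readings every 30 s for up to 15 minutes.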

[6] = test system: S. viridosporus T7A; conditions: streptomyces viridosporus t7a culture, 336 h
Method: (§5) Each Streptomyces species was grown in a cotton-plugged 250 ml flask containing 25 ml of the following medium: 0.2M Tris buffer (pH 7.6), 100 ml; vitamin-free Casamino acids (Difco), 1.0 g; thiamine, 100 μg; biotin, 100 μg; D-glucose, 2 g; deionized water, 900 ml.
(§6) The dyes were filter-sterilized and added at 0.005% (w/v) to the autoclaved basal medium. Alternatively, azo dye stock solutions were sterilized by filtration (pore size 0.2 μm) and added to autoclaved basal medium at concentrations of 50 or 100 ppm. Three replicates of every culture were incubated, and each strain was grown in media supplemented individually with every substrate. Replicate sterile controls also were run in each experiment. […] Three replicates for each strain growth were incubated in only the basal medium as well.
(§7) A one ml sample of culture medium was centrifuged and then diluted 2.5-5.0 fold (actinomycete culture) or 5- to 10-fold (fungal culture) with distilled water. Alternatively, 1.0 ml of fungal supernatant was centrifuged and diluted 5-fold with 10 mM sodium 2,2-dimethylsuccinate buffer (DMS) of pH 4.5. […] To be certain that changes in substrate spectra were not due to pH variations, the effects of pH on the visible absorption of each compound were also assayed within physiological pH range in the culture media. While the spectra of sulfanilic acid (Max abs at 250 nm), vanillic acid (Max abs at 252 nm and 286 nm) and acid yellow 9 (Max abs at 336 nm) were unaffected by pH over the tested pH range, the spectra of several novel azo dyes were changed as evidenced by shifts of their Absmax. Thus, the spectrophotometric assays for the dyes were typically carried out at their isobestic points. […] Spectrophotometric measurements were carried out at the absorbance maxima for azo dyes 16, 17, 18, 19, 31, and 32 (See Table 1 below). […] The compounds were quantified by first developing standard curves of absorbance versus concentrations (0-50 μg) and then comparing measured absorbance values to the standard curves.

[7] = test system: S. chromofuscus A20; conditions: streptomyces chromofuscus a20 culture, 336 h
Method: as §5
The dyes were filter-sterilized and added at 0.005% (w/v) to the autoclaved basal medium. Alternatively, azo dye stock solutions were sterilized by filtration (pore size 0.2 μm) and added to autoclaved basal medium at concentrations of 50 or 100 ppm. Three replicates of every culture were incubated, and each strain was grown in media supplemented individually with every substrate. Replicate sterile controls also were run in each experiment. Cultures were incubated at 37° C. for 14 days with shaking (200-250 rpm). Three replicates for each strain growth were incubated in only the basal medium as well.
A one ml sample of culture medium was centrifuged and then diluted 2.5-5.0 fold (actinomycete culture) or 5- to 10-fold (fungal culture) with distilled water. Alternatively, 1.0 ml of fungal supernatant was centrifuged and diluted 5-fold with 10 mM sodium 2,2-dimethylsuccinate buffer (DMS) of pH 4.5. Azo dye substrate present was then measured spectrophotometrically with a Hewlett-Packard 8452 diode array spectrophotometer operated by a PC Vectra computer equipped with HP's MS™-DOS/UV-VIS software. To be certain that changes in substrate spectra were not due to pH variations, the effects of pH on the visible absorption of each compound were also assayed within physiological pH range in the culture media. […] Thus, the spectrophotometric assays for the dyes were typically carried out at their isobestic points. For instance, the spectrophotometric assays were carried out at 450 nm for azo dye 1 and 400 nm for azo dye 2. […] The compounds were quantified by first developing standard curves of absorbance versus concentrations (0-50 μg) and then comparing measured absorbance values to the standard curves.

[8] = test system: S. chromofuscus A11; conditions: streptomyces chromofuscus a11 culture, 336 h
Method: (§3) Microbiol., 1984, 130:2905-2913.
(§4) Replicate sterile controls also were run in each experiment.
The Streptomyces were grown on the same media and under the same conditions as previously described. […] Thus, the spectrophotometric assays for substrates 1-12 were carried out at their specific isobastic points. Degradation was calculated as percent of substrates removed from culture broth, considering the evaporation factor (around 10%).

[9] = test system: S. badius 252; type: cell-based; conditions: streptomyces badius 252 culture, 336 h
From the text: as §3, §4

[10] = test system: S. rochei A10; type: cell-based; conditions: streptomyces rochei a10 culture, 336 h
From the text: as §3, §4

[11] = test system: S. rochei A14; type: cell-based; conditions: streptomyces rochei a14 culture, 336 h
From the text: as §3, §4

[12] = test system: S. diastaticus A12; type: cell-based; conditions: streptomyces diastaticus a12 culture, 336 h
From the text: as §3, §4

[13] = test system: S. diastaticus A13; type: cell-based; conditions: streptomyces diastaticus a13 culture, 336 h
From the text: as §3, §4

[14] = test system: S. viridosporus T7A; assay: Substrate removal by Streptomyces culture; conditions: growth period 14 days
Method: as §5, §6, §7

[15] = test system: S. rochei A4; assay: Substrate removal by Streptomyces culture; type: cell-based, Streptomyces rochei; conditions: growth period 14 days
From the text: as §4

[16] = test system: Streptomyces spp.; assay: Decolorization of naphthol azo dyes by Streptomyces spp.; type: cell-based
From the text: as §3, §4

| SMILES | Percent substrate removed, S. viridosporus T7A [6] [%] | Percent substrate removed, S. chromofuscus A20 [7] [%] | Percent substrate removed, S. chromofuscus A11 [8] [%] | Percent substrate removed, P. chrysosporium ([3]; growth period 7 days) [%] | Percent substrate removed, S. badius 252 [9] [%] | Percent substrate removed, S. rochei A10 [10] [%] | Percent substrate removed, S. rochei A14 [11] [%] | Percent substrate removed, S. diastaticus A12 [12] [%] | Percent substrate removed, S. diastaticus A13 [13] [%] | Decolorization by Streptomyces spp. [16] | also measured |
| --- | --- | --- | --- | --- | --- | --- | --- | --- | --- | --- | --- |
| Nc1ccc(S(=O)(=O)O)cc1 [Sulfanilic acid, 4-Amino-[U-^14 C]benzenesulfonic acid] | – | – | – | – | – | – | – | – | – | – | Percentage of radioactivity recovered in CO2, Streptomyces chromofuscus [1]: 0.0%; Percentage of radioactivity recovered in biomass (cells), Streptomyces chromofuscus [1]: 0.0%; Percentage of radioactivity removed from the medium, Streptomyces chromofuscus [1]: 0.0%; Percentage of radioactivity recovered in biomass (cells), P. chrysosporium ([2]; 21 days' growth, 200 mg/liter): 1.3%; Percentage of radioactivity removed from the medium, P. chrysosporium ([2]; 21 days' growth, 200 mg/liter): 25.0%; Percentage of radioactivity recovered in CO2, P. chrysosporium ([2]; 21 days' growth, 200 mg/liter, listed as Sulfanilic Acid): 17.2%; Percentage of radioactivity recovered in CO2, P. chrysosporium ([2]; 21 days' growth, 200 mg/liter, listed as sulfanilic acid): 17%; Start of mineralization in the fungal culture ([2]; P. chrysosporium): tenth day; Percent substrate removed, P. chrysosporium ([3]; p. chrysosporium culture, 168 h): 68%; Oxidation by manganese peroxidase [4]: not detected; Oxidation / decolorization by ligninase [5]: transformed slowly |
| COc1cc(N=Nc2ccc(N=Nc3ccc(S(=O)(=O)O)cc3)cc2S(=O)(=O)O)ccc1O [Azo dye 1, 4-(3-methoxy-4-hydroxyphenylazo)-azobenzene-3,4'-disulfonic acid] | 1 | 1 | 56 | 93 | 9 | 51 | 43 | 27 | 15 | – | – |
| COc1cc(C(=O)O)ccc1O [Vanillic acid, 4-hydroxy-3-methoxybenzoic acid, reference compound] | – | 5 | 100 | – | 7 | 91 | 72 | 58 | 34 | – | Percent substrate removed, S. viridosporus T7A [14]: 3%; Percent substrate removed, S. rochei A4 [15]: 100% |
| O=S(=O)(O)c1ccc2c(N=Nc3ccccc3)c(O)ccc2c1 [Azo dye 19, 1-phenylazo-2-hydroxynaphthalene-6-sulfonic acid] | – | – | – | – | – | – | – | – | – | not | – |
| COc1cc(N=Nc2ccc(S(=O)(=O)O)cc2)ccc1O [Azo dye 2, 3-methoxy-4-hydroxy-azobenzene-4'-sulfonic acid] | 9 | 11 | 89 | 94 | 18 | 74 | 72 | 30 | 21 | – | – |
| O=S(=O)(O)c1ccc(N=Nc2c(O)ccc3ccccc23)cc1 [Azo dye 31, 4-(2-hydroxy-1-naphthylazo)benzenesulfonic acid] | – | – | – | – | – | – | – | – | – | not | – |
